Measurements taken from patent US8809341B2, “2,4-pyrimidinediamine compounds and uses as anti-proliferative agents” (Rigel Pharmaceuticals, Inc., priority 2003, dated 2014).
Each block holds one molecule with its values, some of them ahead of it.

Columns and labels:
Type in all cases: cell-based
[1] = test system: HCT116; assay: in vitro antiproliferation assay, HCT116 (colon); settings: HCT116 (colon); read-out: HCT116
Method: The IC50 values of various compounds against a various different tumor cell lines were determined using standard in vitro antiproliferation assays. The tumor cell lines tested were as follows: A549 (lung); H1299 (lung), ACHN (kidney/p53 wt), CAKI (renal cell carcinoma), NCI-H460 (lung); HCT116 (colon/p53w0; HELA (cervix/p53 wt), HUH7 (liver/p53 wt), HUVEC (primary endothelial), LNCAP (prostate), HT-29 (colon); MCF-7 (breast); MCF-7 (breast/ER positive), MDA MB435S (breast); MDA MB231 (breast/ER negative), DU145 (prostate); BxPC-3 (pancreatic); SKOV-3 (ovarian); HepG2 (hepatic), NDHF primary normal human dermal fibroblast), SKMEL28 (breast/p53mut), SKMEL5 (breast/p53 wt), U20S (bone) and PC3 (prostate). […] A blank indicates the specified compound was not tested against the specified cell line.
Many of the compounds were tested against other cell lines. Their activity is reported in TABLE 15, below, where +”, “−”, “−/+” or “+/−” values are as described for TABLES 1-14. Where the cell line includes a value in a parenthetical, the value indicates the seeding density at which the assay was performed

[2] = test system: A549 cells; assay: in vitro antiproliferation assay, A549 (lung); settings: A549 (lung) cells
In short: (§1)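 Standard in vitro antiproliferation assays on tumour cell lines, including A549 and H1299 (both lung); IC50 values determined.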

[3] = test system: H1299 cells; assay: in vitro antiproliferation assay, H1299 (lung); settings: H1299 (lung) cells
In short: as §1

[4] = in vitro antiproliferation, Table 4, compounds with no designated stereochemistry tested as racemate
[5] = Table 5, in vitro antiproliferation

SMILES: CNC(=O)COc1cccc(Nc2ncc(F)c(Nc3ccc4c(c3)NC(=O)[C@H](C)O4)n2)c1 [compound 300]
IC50 [1]: ≤ 20 µM
IC50 [2, 4]: ≤ 20 µM

SMILES: COc1cc(Nc2ncc(F)c(Nc3ccc4c(c3)NC(=O)C(C)(C)O4)n2)cc(OC)c1 [compound 305]
IC50 [1]: ≤ 20 µM
IC50 [2, 4]: ≤ 20 µM

SMILES: COc1c(Cl)cc(Nc2ncc(F)c(Nc3ccc4c(c3)NC(=O)C(C)(C)O4)n2)cc1Cl [compound 307]
IC50 [1]: ≤ 20 µM
IC50 [2, 4]: ≤ 20 µM

SMILES: COc1cc(Nc2ncc(F)c(Nc3ccc4c(c3)NC(=O)C(C)(C)O4)n2)cc(C(F)(F)F)c1 [compound 309]
IC50 [1]: ≤ 20 µM
IC50 [2, 4]: ≤ 20 µM

SMILES: Cc1cc(C)cc(Nc2ncc(F)c(Nc3ccc4c(c3)NC(=O)C(C)(C)O4)n2)c1 [compound 310]
IC50 [1]: ≤ 20 µM
IC50 [2, 4]: ≤ 20 µM

SMILES: CC1(C)Oc2ccc(Nc3nc(Nc4cccc(O)c4)ncc3F)cc2NC1=O [compound 356]
IC50 [1]: > 20 µM

SMILES: Cc1cc(Nc2ncc(F)c(Nc3ccc4c(c3)NC(=O)C(C)(C)O4)n2)cc(Cl)c1O [compound 358]
IC50 [1]: < 20 µM

SMILES: CC(=O)N1CCN(c2ccc(Nc3ncc(F)c(Nc4ccc5c(n4)NC(=O)CO5)n3)cc2)CC1 [compound 419]
IC50 [1]: ≤ 20 µM

SMILES: CC(=O)N1CCN(c2ccc(Nc3ncc(F)c(Nc4ccc5c(n4)NC(=O)C(C)(C)O5)n3)cc2)CC1 [compound 432]
IC50 [1]: ≤ 20 µM

SMILES: CN1CCN(c2ccc(Nc3ncc(F)c(Nc4ccc5c(n4)NC(=O)CO5)n3)cc2)CC1 [compound 435]
IC50 [1]: ≤ 20 µM

SMILES: CN1CCN(c2ccc(Nc3ncc(F)c(Nc4ccc5c(n4)NC(=O)C(C)(C)O5)n3)cc2)CC1 [compound 436]
IC50 [1]: ≤ 20 µM

SMILES: O=C(COc1cccc(Nc2ncc(F)c(Nc3ccc4c(c3)OCCO4)n2)c1)N1CCNCC1 [compound 497]
IC50 [1]: > 20 µM
IC50 [2, 5]: ≤ 20 µM

SMILES: NC(=O)COc1cccc(Nc2ncc(F)c(Nc3ccc4c(c3)OCCO4)n2)c1 [compound 504]
IC50 [1]: ≤ 20 µM
IC50 [2, 5]: ≤ 20 µM

SMILES: COc1cc(Nc2ncc(F)c(Nc3ccc4c(c3)OCCO4)n2)cc(OC)c1OC [compound 506]
IC50 [1]: > 20 µM
IC50 [2, 5]: ≤ 20 µM

SMILES: Fc1cnc(Nc2ccc3c(cnn3CC3CCCCC3)c2)nc1Nc1ccc(Cl)c(Cl)c1 [compound 1091]
IC50 [3]: > 20 µM
IC50 [2]: > 20 µM

SMILES: CC1(C)Oc2ccc(Nc3nc(Nc4ccc5c(cnn5C(C)(C)CC5CCCCC5)c4)ncc3F)cc2NC1=O [compound 1092]
IC50 [3]: ≤ 20 µM
IC50 [2]: ≤ 20 µM

SMILES: COc1cc(Nc2nc(Nc3ccc4c(cnn4C(C)(C)CC4CCCCC4)c3)ncc2F)ccc1F [compound 1093]
IC50 [3]: ≤ 20 µM
IC50 [2]: ≤ 20 µM

SMILES: COc1ccc(Nc2nc(Nc3ccc4cnn(C(C)(C)CC5CCCCC5)c4c3)ncc2F)cc1Cl [compound 1094]
IC50 [3]: ≤ 20 µM
IC50 [2]: ≤ 20 µM

SMILES: CC(C)(CC1CCCCC1)n1ncc2ccc(Nc3ncc(F)c(Nc4ccc(Cl)c(Cl)c4)n3)cc21 [compound 1095]
IC50 [3]: ≤ 20 µM
IC50 [2]: ≤ 20 µM

SMILES: CC1(C)Oc2ccc(Nc3nc(Nc4ccc5cnn(C(C)(C)CC6CCCCC6)c5c4)ncc3F)cc2NC1=O [compound 1096]
IC50 [3]: ≤ 20 µM
IC50 [2]: ≤ 20 µM

SMILES: COc1cc(Nc2nc(Nc3ccc4cnn(C(C)(C)CC5CCCCC5)c4c3)ncc2F)ccc1F [compound 1097]
IC50 [3]: ≤ 20 µM
IC50 [2]: > 20 µM

SMILES: COc1ccc(Nc2nc(Nc3ccc4c(cnn4C(C)(C)CC4CCC4)c3)ncc2F)cc1Cl [compound 1098]
IC50 [3]: ≤ 20 µM
IC50 [2]: > 20 µM

Further lines, results first:

IC50 [3]: ≤ 20 µM
IC50 [2]: ≤ 20 µM
SMILES: CC(C)(CC1CCC1)n1ncc2cc(Nc3ncc(F)c(Nc4ccc(Cl)c(Cl)c4)n3)ccc21 [compound 1099]

IC50 [3]: ≤ 20 µM
IC50 [2]: ≤ 20 µM
SMILES: CC1(C)Oc2ccc(Nc3nc(Nc4ccc5c(cnn5C(C)(C)CC5CCC5)c4)ncc3F)cc2NC1=O [compound 1100]

IC50 [3]: ≤ 20 µM
IC50 [2]: ≤ 20 µM
SMILES: COc1cc(Nc2nc(Nc3ccc4c(cnn4C(C)(C)CC4CCC4)c3)ncc2F)ccc1F [compound 1101]

IC50 [3]: ≤ 20 µM
IC50 [2]: ≤ 20 µM
SMILES: COc1ccc(Nc2nc(Nc3ccc4cnn(C(C)(C)CC5CCC5)c4c3)ncc2F)cc1Cl [compound 1102]

IC50 [3]: ≤ 20 µM
IC50 [2]: ≤ 20 µM
SMILES: CC1(C)Oc2ccc(Nc3nc(Nc4ccc5cnn(C(C)(C)CC6CCC6)c5c4)ncc3F)cc2NC1=O [compound 1104]

IC50 [3]: ≤ 20 µM
IC50 [2]: ≤ 20 µM
SMILES: COc1cc(Nc2nc(Nc3ccc4cnn(C(C)(C)CC5CCC5)c4c3)ncc2F)ccc1F [compound 1105]

IC50 [3]: ≤ 20 µM
IC50 [2]: ≤ 20 µM
SMILES: COc1ccc(Nc2nc(Nc3ccc4c(cnn4C(C)(C)CC4CC4)c3)ncc2F)cc1Cl [compound 1106]

IC50 [3]: > 20 µM
IC50 [2]: > 20 µM
SMILES: CC(C)(CC1CC1)n1ncc2cc(Nc3ncc(F)c(Nc4ccc(Cl)c(Cl)c4)n3)ccc21 [compound 1107]

IC50 [3]: ≤ 20 µM
IC50 [2]: ≤ 20 µM
SMILES: COc1cc(Nc2nc(Nc3ccc4c(cnn4C(C)(C)CC4CC4)c3)ncc2F)ccc1F [compound 1109]

IC50 [3]: ≤ 20 µM
IC50 [2]: ≤ 20 µM
SMILES: COc1ccc(Nc2nc(Nc3ccc4cnn(C(C)(C)CC5CC5)c4c3)ncc2F)cc1Cl [compound 1110]

IC50 [3]: ≤ 20 µM
IC50 [2]: ≤ 20 µM
SMILES: CC(C)(CC1CC1)n1ncc2ccc(Nc3ncc(F)c(Nc4ccc(Cl)c(Cl)c4)n3)cc21 [compound 1111]

IC50 [3]: ≤ 20 µM
IC50 [2]: ≤ 20 µM
SMILES: CC1(C)Oc2ccc(Nc3nc(Nc4ccc5cnn(C(C)(C)CC6CC6)c5c4)ncc3F)cc2NC1=O [compound 1112]

IC50 [3]: ≤ 20 µM
IC50 [2]: ≤ 20 µM
SMILES: COc1cc(Nc2nc(Nc3ccc4cnn(C(C)(C)CC5CC5)c4c3)ncc2F)ccc1F [compound 1113]

IC50 ([3]; Homo sapiens, NCI-H1299): > 20 µM
IC50 ([2]; Homo sapiens): ≤ 20 µM
SMILES: COc1cc(C)c(Nc2ncc(F)c(Nc3ccc4c(c3)NC(=O)[C@@H](C)O4)n2)cc1Cl [compound 1139]

IC50 ([3]; Homo sapiens, NCI-H1299): > 20 µM
IC50 ([2]; Homo sapiens): > 20 µM
SMILES: COc1cc(C)c(Nc2ncc(F)c(Nc3ccc4c(c3)NC(=O)[C@H](C)O4)n2)cc1Cl [compound 1140]

IC50 ([3]; Homo sapiens, NCI-H1299): > 20 µM
IC50 ([2]; Homo sapiens): > 20 µM
SMILES: COc1cc(OC)c(Nc2ncc(F)c(Nc3ccc4c(c3)NC(=O)[C@H](C)O4)n2)cc1Cl [compound 1141]

IC50 ([3]; Homo sapiens, NCI-H1299): > 20 µM
IC50 ([2]; Homo sapiens): ≤ 20 µM
SMILES: COc1cc(C)c(Nc2ncc(F)c(Nc3ccc4c(c3)NC(C)(C)CO4)n2)cc1Cl [compound 1142]

IC50 ([3]; Homo sapiens, NCI-H1299): ≤ 20 µM
IC50 ([2]; Homo sapiens): ≤ 20 µM
SMILES: O=C1Nc2ccc(Nc3nc(Nc4cccc(-c5ncco5)c4)ncc3F)cc2OC1CCO (stereo not drawn) [compound 1145]

IC50 ([3]; Homo sapiens, NCI-H1299): > 20 µM
IC50 ([2]; Homo sapiens): ≤ 20 µM
SMILES: Cc1ccc(CNc2ncc(F)c(Nc3ccc4c(c3)OCCO4)n2)cc1Cl [compound 1146]

IC50 ([3]; Homo sapiens, NCI-H1299): ≤ 20 µM
IC50 ([2]; Homo sapiens): ≤ 20 µM
SMILES: CC(Nc1ncc(F)c(Nc2ccc3c(c2)OCCO3)n1)c1ccccc1 (stereo not drawn) [compound 1147]

IC50 ([3]; Homo sapiens, NCI-H1299): ≤ 20 µM
IC50 ([2]; Homo sapiens): ≤ 20 µM
SMILES: COc1ccc(Nc2nc(Nc3cc(OC)c(Cl)cc3OC)ncc2F)cc1Cl [compound 1158]

IC50 ([3]; Homo sapiens, NCI-H1299): ≤ 20 µM
IC50 ([2]; Homo sapiens): ≤ 20 µM
SMILES: COc1cc(Nc2nc(Nc3cc(OC)c(Cl)cc3OC)ncc2F)cc(OC)c1 [compound 1159]

IC50 ([3]; Homo sapiens, NCI-H1299): ≤ 20 µM
IC50 ([2]; Homo sapiens): ≤ 20 µM
SMILES: CNc1ncc(F)c(Nc2cc(Cl)c(OC)c(Cl)c2)n1 [compound 1160]

IC50 ([3]; Homo sapiens, NCI-H1299): ≤ 20 µM
IC50 ([2]; Homo sapiens): ≤ 20 µM
SMILES: COc1cc(C(N)=O)c(Nc2ncc(F)c(N(C)C3CCC3)n2)cc1OC(=O)c1ccccc1 [compound 1162]

IC50 ([3]; Homo sapiens, NCI-H1299): ≤ 20 µM
IC50 ([2]; Homo sapiens): ≤ 20 µM
SMILES: COc1cc(C(N)=O)c(Nc2ncc(F)c(NC3CCCC3)n2)cc1OC(=O)c1ccccc1 [compound 1163]

IC50 ([3]; Homo sapiens, NCI-H1299): ≤ 20 µM
IC50 ([2]; Homo sapiens): ≤ 20 µM
SMILES: COc1cc(C(N)=O)c(Nc2ncc(F)c(NC3CCCCC3)n2)cc1OC(=O)c1ccccc1 [compound 1164]
